Assay results as given in patent publication US10551389B2, “Target binding molecules identified by kinetic target-guided synthesis” (UNIVERSITY OF SOUTH FLORIDA, priority 2013, dated 2020).
pIC50: −log10 of the molar value.

Tests used:
Mcl-1 = Mcl-1 (Homo sapiens, UniProt Q07820); test: Inhibition of Mcl-1 (disruption of Mcl-1/Bim interaction); format: binding; conditions: for % Inhibition (25 μM) Mcl-1 / inhibition at 25 µM: compound at 25 μM; for % Inhibition (50 μM) Mcl-1 / inhibition at 50 µM: compound at 50 μM
Sequence of Mcl-1 (Q07820 whole entry, species assumed): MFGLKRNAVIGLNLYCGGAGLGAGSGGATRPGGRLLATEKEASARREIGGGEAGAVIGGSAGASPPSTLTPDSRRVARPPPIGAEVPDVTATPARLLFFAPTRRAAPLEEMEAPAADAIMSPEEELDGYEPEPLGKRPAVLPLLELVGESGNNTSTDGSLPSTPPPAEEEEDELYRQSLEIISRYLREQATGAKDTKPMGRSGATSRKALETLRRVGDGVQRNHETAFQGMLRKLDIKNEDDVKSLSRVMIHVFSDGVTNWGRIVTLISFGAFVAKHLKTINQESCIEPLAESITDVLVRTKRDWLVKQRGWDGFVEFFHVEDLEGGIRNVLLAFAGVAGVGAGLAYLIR
Experimental: (§1) In a subsequent study, a structurally diverse library of forty five thio acids and thirty eight sulfonyl azides (identified above) was screened in parallel against Mcl-1 and Bcl-XL using the above mentioned approach. Several potential hit combinations were identified (Table 3). All of these kinetic TGS hit compounds were synthesized (identified above and in Table 3). All the reactions were performed at 20-30 mg scale. The 9-fluorenylmethyl thioester was placed in a 2.0 mL vial and 3.5% DBU/dry DMF solution was added (per 1 μmol of thioester, 4.7 μL, of 3.5% DBU/dry DMF solution was added) and the reaction was stirred for one minute. Then the sulfonylazide (1 eq to thioester) was added to the reaction mixture and immediately bubbling was observed. After the reaction was completed (approximately one minute, monitored by LC-MS) water (200 μL) was added and the pH was adjusted to 7.0 using 1M HCl solution. The reaction mixture was extracted with DCM until there is no product in the aqueous layer (checked by TLC or LC-MS). The product was purified by flash chromatography. Testing of these acylsulfonamides has shown that the hit compounds disrupt the Bcl-XL/Bim or Mcl-1/Bim interaction (Table 3).

Bcl-XL = Bcl-XL (Homo sapiens, UniProt Q07817); test: Inhibition of Bcl-XL (disruption of Bcl-XL/Bim interaction); format: binding; conditions: for % Inhibition (25 μM) Bcl-XL / inhibition at 25 µM: compound at 25 μM; for % Inhibition (50 μM) Bcl-XL / inhibition at 50 µM: compound at 50 μM
Sequence of Bcl-XL (Q07817 whole entry, species assumed): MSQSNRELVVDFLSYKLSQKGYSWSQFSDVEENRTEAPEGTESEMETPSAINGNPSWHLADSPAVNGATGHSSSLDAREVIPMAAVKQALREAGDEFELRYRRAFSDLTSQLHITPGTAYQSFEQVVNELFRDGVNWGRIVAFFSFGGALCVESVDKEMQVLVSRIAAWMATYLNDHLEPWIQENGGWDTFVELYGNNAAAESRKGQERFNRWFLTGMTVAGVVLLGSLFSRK
Experimental: as §1

| % Inhibition (25 μM) Mcl-1 (Mcl-1) | % Inhibition (50 μM) Mcl-1 (Mcl-1) | % Inhibition (25 μM) Bcl-XL (Bcl-XL) | % Inhibition (50 μM) Bcl-XL (Bcl-XL) | pIC50 (Mcl-1) | inhibition at 25 µM (Mcl-1) | inhibition at 50 µM (Mcl-1) | inhibition at 25 µM (Bcl-XL) | inhibition at 50 µM (Bcl-XL) | pIC50 (Bcl-XL) | Compound |
| --- | --- | --- | --- | --- | --- | --- | --- | --- | --- | --- |
| 19.4% | 64.1% | 17.4% | 27.0% |  |  |  |  |  |  | NS(=O)(=O)c1ccc(CN(CCSc2ccccc2)Cc2ccc(S(=O)(=O)NC(=O)CC3Sc4ccccc4NC3=O)cc2)cc1 (stereo not shown) [SZ10TA34] |
| 37.2% | 35.2% | <2.0% | <2.0% |  |  |  |  |  |  | Cn1cc(C(=O)C2CCCCC2)c2cc(C(=O)NS(=O)(=O)c3ccc(CN(CCSc4ccccc4)Cc4ccc(S(N)(=O)=O)cc4)cc3)ccc21 [SZ10TA40] |
| 27.6% | 63.4% | 9.9% | 20.6% |  |  |  |  |  |  | NS(=O)(=O)c1ccc(CN(CCSc2ccccc2)Cc2ccc(S(=O)(=O)NC(=O)c3cccc(NCCc4ccccc4)c3)cc2)cc1 [SZ10TA44] |
| 53.1% | 63.6% | 8.5% | <2.0% |  |  |  |  |  |  | CC(C)(C)c1ccc(-c2ccc(S(=O)(=O)NC(=O)c3ccc4c(ccn4Cc4ccc(C(F)(F)F)cc4C(F)(F)F)c3)cc2)cc1 [SZ11TA30] |
|  |  |  |  | 4.66 | 74% | > 99% | 30.7% | 58.7% |  | Cn1cc(C(=O)C2CCCCC2)c2cc(C(=O)NS(=O)(=O)c3ccc(-c4ccc(C(C)(C)C)cc4)cc3)ccc21 [SZ11TA40] |
|  |  |  |  | 4.87 | 77.3% |  | 14% | 22.6% |  | O=C(NS(=O)(=O)c1ccc(CNc2cccc([N+](=O)[O-])c2)cc1)c1ccc(CN2C(=O)C(c3ccc(F)cc3F)=C(c3ccc(F)cc3F)C2=O)cc1 [SZ12TA42] |
| 68.5% | 93.1% | 27.8% | 47.9% |  |  |  |  |  |  | Cn1cc(C(=O)C2CCCCC2)c2cc(C(=O)NS(=O)(=O)c3ccc(COc4ccc5c(=O)cc(-c6ccccc6)oc5c4)cc3)ccc21 [SZ14TA40] |
|  |  |  |  | 5.01 |  |  |  | 53.4% |  | O=C(NS(=O)(=O)c1ccc(CN(CCSc2ccccc2)Cc2c(F)cccc2Cl)cc1)c1ccccc1 [SZ15TA1] |
|  |  |  |  | 5.24 |  |  |  | 43% |  | Cc1nc(-c2ccccc2)sc1C(=O)NS(=O)(=O)c1ccc(CN(CCSc2ccccc2)Cc2c(F)cccc2Cl)cc1 [SZ15TA3] |
|  | >99.0% |  | 38.4% | 4.87 |  |  |  |  | 4.28 | COc1cc(OC)cc(C(=O)NS(=O)(=O)c2ccc(CN(CCSc3ccccc3)Cc3c(F)cccc3Cl)cc2)c1 [SZ15TA5] |
| <2.0% | 96.5% | 3.4% | 12.4% | 5.12 |  |  |  |  | 4.33 | O=C(NS(=O)(=O)c1ccc(CN(CCSc2ccccc2)Cc2c(F)cccc2Cl)cc1)c1ccc(OC(F)(F)F)cc1 [SZ15TA8] |
| 65.8% | 58.8% | 31.1% | 23.2% |  |  |  |  |  |  | O=C(NS(=O)(=O)c1ccc(CN(CCSc2ccccc2)Cc2c(F)cccc2Cl)cc1)c1ccc(-c2ccc(F)cc2)cc1 [SZ15TA14] |
| 42.2% | 53.6% | 10.1% | 8.8% |  |  |  |  |  |  | O=C(Cn1c2ccccc2c2ccccc21)NS(=O)(=O)c1ccc(CN(CCSc2ccccc2)Cc2c(F)cccc2Cl)cc1 [SZ15TA15] |
|  |  |  |  | 4.69 | 79.6% |  | 43.4% | 60% |  | O=C(NS(=O)(=O)c1ccc(CN(CCSc2ccccc2)Cc2c(F)cccc2Cl)cc1)c1ccc(CCc2ccccn2)cc1 [SZ15TA17] |
| 54.4% | 70.8% | 14.7% | 18.9% |  |  |  |  |  |  | COc1ccc(Cc2ccc(C(=O)NS(=O)(=O)c3ccc(CN(CCSc4ccccc4)Cc4c(F)cccc4Cl)cc3)cc2)c(OC)c1OC [SZ15TA24] |
|  |  |  |  | 4.82 | 77.2% |  | 43% | 57.8% |  | O=C(NS(=O)(=O)c1ccc(CN(CCSc2ccccc2)Cc2c(F)cccc2Cl)cc1)c1ccc(-c2ccccn2)cc1 [SZ15TA25] |
| 47.4% | 82.8% | 19.6% | 28.6% |  |  |  |  |  |  | O=C(CC1Sc2ccccc2NC1=O)NS(=O)(=O)c1ccc(CN(CCSc2ccccc2)Cc2c(F)cccc2Cl)cc1 (stereo not shown) [SZ15TA34] |

| % Inhibition (25 μM) Mcl-1 (Mcl-1) | % Inhibition (50 μM) Mcl-1 (Mcl-1) | % Inhibition (25 μM) Bcl-XL (Bcl-XL) | % Inhibition (50 μM) Bcl-XL (Bcl-XL) | pIC50 (Mcl-1) | inhibition at 25 µM (Mcl-1) | inhibition at 50 µM (Mcl-1) | inhibition at 25 µM (Bcl-XL) | inhibition at 50 µM (Bcl-XL) | pIC50 (Bcl-XL) | Compound |
| --- | --- | --- | --- | --- | --- | --- | --- | --- | --- | --- |
|  |  |  |  | 4.50 | 49.9% |  | 26.8% | 55.5% |  | O=C(NS(=O)(=O)c1ccc(-c2ccc(C(F)(F)F)cc2)cc1)c1cccc(NCCc2ccccc2)c1 [SZ16TA44] |
|  |  |  |  | 5.07 |  | 100% |  | 39.6% |  | COc1cccc(CN(CCSc2ccccc2)Cc2ccc(S(=O)(=O)NC(=O)c3sc(-c4ccccc4)nc3C)cc2)c1 [SZ17TA3] |
|  |  |  |  | 4.70 |  |  |  | 66.5% |  | COc1cccc(CN(CCSc2ccccc2)Cc2ccc(S(=O)(=O)NC(=O)c3cccc4ccccc34)cc2)c1 [SZ17TA7] |
|  |  |  |  | 5.08 | 60.5% | 100% | 4.1% | < 2% |  | COc1cccc(CN(CCSc2ccccc2)Cc2ccc(S(=O)(=O)NC(=O)c3ccc(OC(F)(F)F)cc3)cc2)c1 [SZ17TA8] |
| 73.9% | 46.7% | 16.6% | 2.8% |  |  |  |  |  |  | COc1cccc(CN(CCSc2ccccc2)Cc2ccc(S(=O)(=O)NC(=O)c3ccc(-c4ccc(F)cc4)cc3)cc2)c1 [SZ17TA14] |
|  |  |  |  |  | 53.3% |  | 3% | 12% |  | COc1cccc(CN(CCSc2ccccc2)Cc2ccc(S(=O)(=O)NC(=O)Cn3c4ccccc4c4ccccc43)cc2)c1 [SZ17TA15] |
| 73.9% | 89.0% | 68.1% | 58.4% |  |  |  |  |  |  | COc1cccc(CN(CCSc2ccccc2)Cc2ccc(S(=O)(=O)NC(=O)c3ccc(CCc4ccccn4)cc3)cc2)c1 [SZ17TA17] |
| 7.2% | 12.4% | <2.0% | <2.0% |  |  |  |  |  |  | COc1cccc(CN(CCSc2ccccc2)Cc2ccc(S(=O)(=O)NC(=O)CCCN3C(=O)C(c4ccc(F)cc4F)=C(c4ccc(F)cc4F)C3=O)cc2)c1 [SZ17TA20] |
| 64.9% | 93.6% | 38.6% | 54.5% |  |  |  |  |  |  | COc1cccc(CN(CCSc2ccccc2)Cc2ccc(S(=O)(=O)NC(=O)c3ccc(-c4ccccn4)cc3)cc2)c1 [SZ17TA25] |
| 18.0% | 15.8% | <2.0% | <2.0% |  |  |  |  |  |  | COc1cccc(CN(CCSc2ccccc2)Cc2ccc(S(=O)(=O)NC(=O)c3ccc4c(ccn4Cc4ccc(C(F)(F)F)cc4C(F)(F)F)c3)cc2)c1 [SZ17TA30] |
| 25.8% | 58.5% | 7.5% | <2.0% |  |  |  |  |  |  | COc1cccc(CN(CCSc2ccccc2)Cc2ccc(S(=O)(=O)NC(=O)c3ccc4c(c3)c(C(=O)C3CCCCC3)cn4C)cc2)c1 [SZ17TA40] |
| 62.7% | 34.5% | 6.8% | <2.0% |  |  |  |  |  |  | COc1cccc(CN(CCSc2ccccc2)Cc2ccc(S(=O)(=O)NC(=O)c3ccc4c(c3)c(C(=O)c3cccs3)cn4C)cc2)c1 [SZ17TA45] |
| 18.3% | 52.3% | 14.1% | 5.2% |  |  |  |  |  |  | COc1cc2c(cc1OC)C(c1ccccc1)N(CCS(=O)(=O)NC(=O)c1ccc(CN3C(=O)C(c4ccc(F)cc4F)=C(c4ccc(F)cc4F)C3=O)cc1)CC2 (stereo not shown) [SZ27TA42] |
| 42.8% | 60.5% | 9.7% | <2.0% |  |  |  |  |  |  | O=C(NS(=O)(=O)CCN(CCSc1ccccc1)Cc1ccc2c(c1)OCO2)c1ccc2c(ccn2Cc2ccc(C(F)(F)F)cc2C(F)(F)F)c1 [SZ28TA30] |
| 22.6% | 25.8% | 8.1% | <2.0% |  |  |  |  |  |  | O=C(NS(=O)(=O)CCN(CCSc1ccccc1)Cc1ccc2c(c1)OCO2)c1ccc(C(c2c[nH]c3ccccc23)c2c[nH]c3ccccc23)cc1 [SZ28TA31] |
| 46.8% | 54.0% | 25.7% | 34.6% |  |  |  |  |  |  | Cn1cc(C(=O)c2cccs2)c2cc(C(=O)NS(=O)(=O)CCN(CCSc3ccccc3)Cc3ccc4c(c3)OCO4)ccc21 [SZ28TA45] |
|  |  |  |  | 5.03 | 69.9% | 100% | 29.6% | 51.3% |  | Cc1nc(-c2ccccc2)sc1C(=O)NS(=O)(=O)c1ccc(CN(CCSc2ccccc2)Cc2ccc3c(c2)OCO3)cc1 [SZ31TA3] |
